According to patent US20150203837A1, “FUSION PROTEIN FOR ACTIVATING RTK SIGNAL TRANSMISSION BY MEANS OF LIGHT, AND USE THEREOF” (KOREA ADVANCED INSTITUTE OF SCIENCE AND TECHNOLOGY, priority 2012, published 2015):

Molecular target: T1, TrkB (Rattus norvegicus, UniProt Q63604)
T1 construct: PHR domain (1-498 a.a.) of Arabidopsis CRY2 (NM_100320); expressed in transfected cells; host or cells: HeLa; the other entry of the earlier key: CRY2 (Q96524, Cryptochrome-2)
Assay: Light-induced calcium signaling after treatment with TrkB-specific inhibitor (R-GECO imaging)
Assay type: cell-based
Conditions: 100 nM K252a; HeLa cells co-transfected with TrkB-PHR-YFP and R-GECO; 488 nm light
From the text: The present inventors observed whether sub-RTK signaling was activated by light irradiation after treating a RTK-specific inhibitor in order to confirm that only RTK-specific signaling pathways are activated by light irradiation affecting downstream pathways thereof.
The present inventors used TrkB-PHR-YFP construct prepared in the example 1-1 as an example to investigate the activation of TRK signal transduction. In addition, the present inventors used R-GECO construct (Addgene, plasmid 32444; CMV-R-GECO1) to investigate whether calcium signaling among downstream signaling pathways of RTK is activated by light irradiation. Particularly, HeLa cells were co-transfected with the TrkB-PHR-YFP construct prepared in the example 1-1 and R-GECO construct and cultured in DMEM media containing 10% FBS in the condition of 37° C. and 10% CO2. The cultivated cells were treated with 100 nM of K252a known as a TrkB-specific inhibitor and images taken with a confocal microscope before and after the irradiation with light having 488 nm of wavelength were obtained and analyzed (FIG. 6). As a result, it was observed that there is no difference in the experimental group treated with K252a. On the contrary, the calcium signaling was changed according to light irradiation in the control group.

T1 sequence (Q63604 with tags, fused parts or gaps): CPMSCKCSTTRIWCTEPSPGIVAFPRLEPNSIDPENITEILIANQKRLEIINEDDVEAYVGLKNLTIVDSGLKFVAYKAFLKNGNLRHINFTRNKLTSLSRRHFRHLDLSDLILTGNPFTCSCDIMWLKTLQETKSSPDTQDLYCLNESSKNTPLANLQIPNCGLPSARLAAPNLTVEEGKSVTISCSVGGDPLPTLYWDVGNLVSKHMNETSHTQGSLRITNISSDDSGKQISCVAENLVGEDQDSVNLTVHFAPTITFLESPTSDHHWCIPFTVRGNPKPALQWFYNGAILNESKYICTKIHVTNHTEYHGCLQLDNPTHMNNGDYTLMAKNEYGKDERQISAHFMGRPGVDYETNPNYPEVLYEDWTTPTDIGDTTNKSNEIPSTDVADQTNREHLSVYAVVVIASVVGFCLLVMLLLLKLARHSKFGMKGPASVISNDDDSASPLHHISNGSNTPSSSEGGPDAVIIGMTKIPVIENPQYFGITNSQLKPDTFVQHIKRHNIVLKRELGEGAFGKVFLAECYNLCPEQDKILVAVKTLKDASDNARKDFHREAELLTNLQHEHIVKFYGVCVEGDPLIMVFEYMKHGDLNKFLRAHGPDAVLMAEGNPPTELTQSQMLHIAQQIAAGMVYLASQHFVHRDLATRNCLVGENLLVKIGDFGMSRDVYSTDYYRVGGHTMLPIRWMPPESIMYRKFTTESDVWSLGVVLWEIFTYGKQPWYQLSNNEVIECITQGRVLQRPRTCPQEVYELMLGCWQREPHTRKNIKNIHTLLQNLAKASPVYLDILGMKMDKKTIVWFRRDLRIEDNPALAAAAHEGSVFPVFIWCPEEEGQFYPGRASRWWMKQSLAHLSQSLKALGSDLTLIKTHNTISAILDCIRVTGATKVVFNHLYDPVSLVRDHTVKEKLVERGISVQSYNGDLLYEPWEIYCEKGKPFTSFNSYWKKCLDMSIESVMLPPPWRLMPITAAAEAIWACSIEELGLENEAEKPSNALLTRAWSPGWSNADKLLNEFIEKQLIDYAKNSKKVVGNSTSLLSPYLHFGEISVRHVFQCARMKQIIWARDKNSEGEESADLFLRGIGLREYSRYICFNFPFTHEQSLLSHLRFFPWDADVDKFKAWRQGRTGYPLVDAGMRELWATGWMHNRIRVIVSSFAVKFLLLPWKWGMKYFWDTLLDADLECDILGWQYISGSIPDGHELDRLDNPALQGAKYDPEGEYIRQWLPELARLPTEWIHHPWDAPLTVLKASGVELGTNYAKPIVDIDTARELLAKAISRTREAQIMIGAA

COC(=O)[C@@]1(O)C[C@H]2O[C@]1(C)n1c3ccccc3c3c4c(c5c6ccccc6n2c5c31)C(=O)NC4 [K252a]
change of calcium signaling according to light irradiation: no difference
